# Experimental data as given in US6011019A, “Vasoactive effects and free radical generation by β-amyloid peptides” (University of South Florida, priority 1996, dated 2000).
# How the values were obtained:
# [1] = tested on: porcine coronary arteries; assay: Porcine coronary artery vascular tone and bradykinin relaxation
# Text: Freshly isolated porcine coronary arteries were studied by the methods described above for rat aorta.
# The effect of pre-treatment with a single dose of amyloid protein on relaxation induced by increasing concentrations of the vasodilator bradykinin is shown in FIG. 23. […] was preconstricted with a single dose of the vasoconstrictor U46619.
# rat coronary arteries = assay: Rat coronary artery constriction and relaxation (U46619, acetylcholine); conditions: single dose 10^-6 M; preconstricted with 10^-7 M U46619
# Procedure: The effects of β-amyloid peptide were examined on samples of rat coronary arteries prepared as described above. Referring specifically to FIG. 1, rat coronary arteries were treated with β-amyloid peptide (Aβ40) causing constriction of the coronary arteries.
# FIG. 3 illustrates the effect of various amyloid fragments on the constriction of rat coronary arteries. Following control constriction with 10^-7 M U46619, the tissue samples were rinsed, equilibrated with buffer, and treated with 10^-6 M Aβ peptides for fifteen minutes. Following treatment with the Aβ peptides, the blood vessels were rinsed and again exposed to U46619. The values are expressed as percent of control constriction produced by U46619 alone.
# The effect of pretreatment of coronary arteries with a single dose (10^-6 M) of A40 on acetylcholine induced relaxation is shown in FIG. 20. The blood vessel was preconstricted with 10^-7 M U46619 and relaxed with increasing doses of acetylcholine (10^-9 M to 10^-5 M).
# [2] = tested on: bovine mid cerebral arteries; assay: Bovine mid cerebral artery contraction (U46619) and bradykinin vasodilation; conditions: 1 μM β-amyloid for 15 minutes
# Procedure: Freshly dissected bovine mid cerebral arteries were cut into 3 mm rings and studied in tissue chamber as described earlier. Contraction of the blood vessel to the vasoconstrictor U46619 was studied before and after treatment with 1 μM β-amyloid for 15 minutes. […] (See FIG. 24).
# [3] = tested on: endothelial cell layer in rat coronary artery; assay: Electron microscopy of endothelial cell layer in rat coronary artery; conditions: β-amyloid thirty minutes at 10^-6 M
# Procedure: The physiological effects of β-amyloid treatment on the coronary artery with and without pretreatment with SOD is shown in FIG. 7A-C. FIG. 7A-C are electron micrographs showing the endothelial cell layer in rat coronary artery. […] The tissue samples were kept in glutaraldehyde solution at 4° C. until processed and then rinsed with cacodylate buffer. The tissues were post-fixed with 1% buffered osmium tetroxide, dehydrated with grated ethanol solutions, and embedded in a mixture of eponaraldite. Ultra thin sections were stained with uranyl acetate and lead citrate and viewed on a model 7,000 Hitachi transmission electron microscope. The inset bar indicates two microns. The experiment was repeated three or more times with blood vessels from different animals. FIG. 7A is a control coronary artery and depicts normal endothelial cells closely adhering to the intimal elastic lamina lining of the lumen. […] FIG. 7C depicts a rat coronary artery pretreated with SOD (150 units/ml, for thirty seconds prior to the addition of β-amyloid).
# aortic rings = assay: β-amyloid augmentation of phenylephrine (PE) induced contraction of aortic rings; set-up: species or system rat; conditions: for PE induced contraction, +β-Amyloid P1 (±SEM): after 10^-6 M β-amyloid, maximum contraction without β-amyloid = 100%; for PE induced contraction, +β-Amyloid P2 (±SEM): repeated contraction after washing, no further β-amyloid
# Procedure: (§1) The blood vessel preparations were mounted on stainless steel hooks attached to a force-displacement transducer and equilibrated under the optimum tension of 1.3 g for a period of sixty minutes in a tissue bath (10 ml) containing oxygenated (5% CO2 in O2) Kreb's buffer at 37° C. The buffer was changed every fifteen minutes. After equilibration for sixty minutes the viability of the blood vessel with intact endothelium was established by constricting the blood vessel using phenylephrine ([…]). This dose of phenylephrine elicited 80% of the maximum response. […] The vessel preparations were washed for fifteen minutes before various manipulations as described below.
# The procedure was then repeated following incubation of the tissue with 10^-6 M β-amyloid for fifteen minutes (P1). The tissue was then rinsed and contractions repeated twice following fifteen minute incubation (P2 & P3) without further addition of β-amyloid. Arrows are shown for points of addition for P3.
# Following a fifteen minute incubation, the preparations were contracted with 10^-7 M phenylephrine (PE) as described earlier. Control contractions with PE alone were carried out in presence of the various test compounds. Values represent the mean±SEM of four or more experiments. The heat-inactivated SOD was prepared by placing it in boiling water for thirty minutes followed by cooling prior to use. The hydrogen peroxide-inactivated SOD was prepared by exposing SOD to 10 mM H2 O2 for thirty minutes at pH 8.5 and subsequent separation using Microcon filtration system. The amyloid induced PE contraction was blocked by active SOD. Neither albumin or inactivated SOD had any effect on the amyloid activity.
# The effect of preincubation of blood vessel with 10^-6 M β-amyloidon contraction induced by phenylephrine (2, 4, 8, & 16×10^-8 M is shown in Table 1). The maximum contraction in the absence of β-amyloid is taken as 100% and the values obtained following exposure to β-amyloid are expressed as percent of control value. After washing out phenylephrine and acetylcholine of the control contraction, β-amyloid augmented the phenylephrine induced contractions (P1). This effect was blocked by SOD. Washing out the phenylephrine and acetylcholine of the post peptide contraction and repeating the contractions caused further enhancement (P2). Values represent the mean±SEM of nine or more experiments.
# The tissue was then incubated for fifteen minutes with β-amyloid (5×10^-7 M) with or without the drug, followed by contractions with PE. The concentrations compounds used were: L-NMMA, an inhibitor of NO synthase (10^-4 M); indomethacin, an inhibitor of the cyclooxygenase pathway (10^-5 M); SQ 29548, a thromboxane A2 receptor antagonist (10^-5 M); and catalase (1000 units/ml). Values are represented as percentage of the maximal contraction obtained with β-amyloid and PE alone and standardized to remove the intrinsic effects (if any) of each drug on PE contraction alone. The results represent the mean±SEM of five or more experiments.
# blood vessel (rat aorta) = assay: Acetylcholine induced relaxation of preconstricted rat aorta after β-amyloid; conditions: for acetylcholine induced relaxation after β-amyloid pretreatment: 10^-6 M β-amyloid fifteen minutes, preconstricted with 10^-7 M phenylephrine
# Procedure: as §1
# (1=10^-9 M, 2=10^-8 M, 3=5×10^-8 M, 4=10^-7 M, 5=5×10^-7 M, 6=10^-6 M, 7=10^-5 M, 8=5×10^-5 M, the curve denoted by (C) is the control curve and +Aβ indicates the curve for β-amyloid treated aorta.)
# FIG. 11 illustrates the relaxation by acetylcholine under control conditions and following fifteen minute incubation with 10^-6 M β-amyloid protein. The acetylcholine relaxation curve is shifted to the right but maintains its sigmoidal form indicating attenuation of acetylcholine induced relaxation. Values represent the mean±SEM of 5 or more experiments. […] At higher doses of acetylcholine greater percentage changes in relaxation occur preserving the sigmoidal response.
substance,measurement,setting,value
β-amyloid,contraction of porcine coronary artery,[1]; increasing concentrations of amyloid peptide,dose dependent contraction
same,vasodilation caused by bradykinin after amyloid peptide,"[1]; single dose of amyloid, increasing bradykinin",reduced the vasodilation caused by the bradykinin
same,vasoconstriction by U46619 after amyloid peptide,"[1]; single dose of amyloid, preconstricted with U46619",significant increase in vasoconstriction
same,acetylcholine induced vasodilation after pretreatment,rat coronary arteries,significantly reduced the vasodilation induced by acetylcholine
same,contraction induced by U46619 after β-amyloid,[2],significantly increased
same,vasodilatory effect of bradykinin after β-amyloid,[2],markedly reduced
same,endothelial layer morphology in rat coronary artery,[3],"Derangement of the endothelial layer, condensed nucleus, separation from the intimal elastic lamina, and areas of denuded internal elastic lamina"
same,"PE induced contraction, +β-Amyloid P1 (±SEM)",aortic rings; PE 2×10^-8 M,13.3(5.9) percent of control value
same,"PE induced contraction, +β-Amyloid P2 (±SEM)",aortic rings; PE 2×10^-8 M,20(5.0) percent of control value
same,"PE induced contraction, +β-Amyloid P1 (±SEM)",aortic rings; PE 4×10^-8 M,75(6.0) percent of control value
same,"PE induced contraction, +β-Amyloid P2 (±SEM)",aortic rings; PE 4×10^-8 M,99(15.0) percent of control value
same,"PE induced contraction, +β-Amyloid P1 (±SEM)",aortic rings; PE 8×10^-8 M,105(15.0) percent of control value
same,"PE induced contraction, +β-Amyloid P2 (±SEM)",aortic rings; PE 8×10^-8 M,133(20.0) percent of control value
same,"PE induced contraction, +β-Amyloid P1 (±SEM)",aortic rings; PE 16×10^-8 M,128(11.7) percent of control value
same,"PE induced contraction, +β-Amyloid P2 (±SEM)",aortic rings; PE 16×10^-8 M,141(17.6) percent of control value
same,PE contraction after washing the β-amyloid treated tissue,aortic rings; subsequent contraction with PE,showed further increase
same,acetylcholine induced relaxation after β-amyloid pretreatment,blood vessel (rat aorta),significantly reduced relaxation
same,acetylcholine induced relaxation after β-amyloid pretreatment,blood vessel (rat aorta); listed as β-amyloid protein,significantly lowered
same,restoration of acetylcholine induced relaxation by washing after β-amyloid,blood vessel (rat aorta); tissue washed following β-amyloid exposure,did not restore the acetylcholine-induced relaxation to control levels
